Like-named read-outs stand apart in the source and are kept apart here.
Columns and labels:
Assay type in all cases: cell-based
[1] = tested on: HIV-1NL4-3 Wild Type; assay: Luminescence reduction assay, MT4 cells infected with HIV-1NL4-3 luciferase reporter virus, wild type; conditions: 2% FCS
Method in brief: (§1)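 Compound dilution series in 1% DMSO, with 2% or 10% FCS, incubated 5 days at 37° C/5% CO2 with MT4 cells previously pellet-infected (2 h) by luciferase reporter NL4-3 virus, wild type or carrying RT resistance mutations. EC50 taken where luminescence from secreted luciferase falls to 50% of untreated infected control.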

[2] = tested on: HIV-1NL4-3 K103N-Y181C; assay: Luminescence reduction assay, MT4 cells infected with HIV-1NL4-3 luciferase reporter virus, RT mutant K103N-Y181C
Method in brief: as §1

[3] = tested on: HIV-1LAI Wild Type; assay: AlamarBlue viability assay, HIV-1LAI-infected MT4 cells; conditions: 10% FCS
Method in brief: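 MT4 cells infected with HIV-1LAI (MOI 0.01, supernatant infection) cultured 5 days at 37 °C with compounds in RPMI with 2% or 10% FCS, 1% DMSO final. AlamarBlue fluorescence after 3 h; EC50 as 50% protection relative to uninfected cells, CC50 from high-concentration cytotoxicity.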

[4] = Human immunodeficiency virus 1, MT4, MT4 cells
[5] = Human immunodeficiency virus 1, MT4, read-out: EC50 (μM) MT4 Cells HIV-1NL4-3 K103N-Y181C 2% FCS, MT4 cells, HIV-1NL4-3 K103N-Y181C, 2% FCS
[6] = read-out: EC50 (μM) MT4 Cells HIV-1NL4-3 K103N-Y181C 2% FCS, MT4 cells, HIV-1NL4-3 K103N-Y181C, 2% FCS

Question: Which EC50 [1, 4] does the source give for `N#Cc1cc(OC(F)(F)F)cc(-c2cc(C(=O)N3CNC(=O)C3)nn2-c2cccnc2)c1` [Example 88, 3-{3-[(4-Oxoimidazolidin-1-yl)carbonyl]-1-(pyridin-3-yl)-1H-pyrazol-5-yl}-5-(trifluoromethoxy)benzonitrile] here?
Answer: 0.015 µM

Question: And the EC50 [2, 5]?
Answer: 0.026 µM

Question: And the EC50 [3, 4]?
Answer: 0.186 µM

Question: For `O=C1CN(C(=O)c2cc(-c3ccnc(Cl)c3)n(-c3ccc(F)c(Cl)c3)n2)CCN1` [Example 113, 4-{[1-(3-Chloro-4-fluorophenyl)-5-(2-chloropyridin-4-yl)-1H-pyrazol-3-yl]carbonyl}piperazin-2-one], which EC50 [1, 4] is on record?
Answer: 0.025 µM

Question: And the EC50 [2, 5]?
Answer: 0.298 µM

Question: And the EC50 [3, 4]?
Answer: 0.233 µM

Question: With `O=C1CN(C(=O)c2cc(-c3cc(F)cc(Cl)c3)n(-c3ccc(Cl)nc3)n2)CN1` [Example 7, 1-{[5-(3-Chloro-5-fluorophenyl)-1-(6-chloropyridin-3-yl)-1H-pyrazol-3-yl]carbonyl}imidazolidin-4-one] as the molecule, how does the EC50 [1, 4] read?
Answer: 0.01 µM

Question: And the EC50 [2, 5]?
Answer: 0.018 µM

Question: What about the EC50 [3, 4] of the same molecule?
Answer: 0.064 µM

Question: For `O=C(c1cc(-c2cc(Cl)cc(OC(F)(F)F)c2)n(-c2cccnc2)n1)N1CCSC1` [Example 77, {5-[3-Chloro-5-(trifluoromethoxy)phenyl]-1-(pyridin-3-yl)-1H-pyrazol-3-yl}(1,3-thiazolidin-3-yl)methanone], which EC50 [1, 4] is on record?
Answer: 0.067 µM

Question: And the EC50 [2, 5]?
Answer: 0.364 µM

Question: And the EC50 [3, 4]?
Answer: 0.861 µM

Question: Which EC50 [1, 4] does the source give for `O=C(c1cc(-c2cc(F)cc(OC(F)(F)F)c2)n(-c2ccnc(Cl)c2)n1)N1CCS(=O)(=O)C1` [Example 65, {1-(2-Chloropyridin-4-yl)-5-[3-fluoro-5-(trifluoromethoxy)phenyl]-1H-pyrazol-3-yl}(1,1-dioxido-1,3-thiazolidin-3-yl)methanone] here?
Answer: 0.026 µM

Question: And the EC50 [2, 5]?
Answer: 0.291 µM

Question: What about the EC50 [3, 4] of the same molecule?
Answer: 0.491 µM

Question: Which results are given for `O=C1CN(C(=O)c2cc(-c3cc(F)cc(OC(F)(F)F)c3)n(-c3cccnc3)n2)CN1` [Example 57, 1-({5-[3-Fluoro-5-(trifluoromethoxy)phenyl]-1-(pyridin-3-yl)-1H-pyrazol-3-yl}carbonyl)imidazolidin-4-one]?
Answer: EC50 [1, 4]: 0.016 µM; EC50 [2, 5]: 0.05 µM; EC50 [3, 4]: 0.183 µM

Question: How did the EC50 [1, 4] turn out when `O=C1CN(C(=O)c2cc(-c3cc(F)cc(Cl)c3)n(-c3ccnc(Cl)c3)n2)CCN1` [Example 15, 4-{[5-(3-Chloro-5-fluorophenyl)-1-(2-chloropyridin-4-yl)-1H-pyrazol-3-yl]carbonyl}piperazin-2-one] was run?
Answer: 0.018 µM

Question: And the EC50 [2, 5]?
Answer: 0.452 µM

Question: What about the EC50 [3, 4] of the same molecule?
Answer: 0.151 µM

Question: How did the EC50 [1, 4] turn out when `Cc1cc(-n2nc(C(=O)N3CCSC3)cc2-c2cc(F)cc(Cl)c2)ccn1` [Example 23, [5-(3-Chloro-5-fluorophenyl)-1-(2-methylpyridin-4-yl)-1H-pyrazol-3-yl](1,3-thiazolidin-3-yl)methanone] was run?
Answer: 0.439 µM

Question: And the EC50 [2, 5]?
Answer: > 3.3 µM

Question: What about the EC50 [3, 4] of the same molecule?
Answer: > 3.3 µM

Question: What does the source list for `COc1cc(OC(F)(F)F)cc(-c2cc(C(=O)N3CCNC(=O)C3)nn2-c2ccnc(Cl)c2)c1` [Example 87, 4-({1-(2-Chloropyridin-4-yl)-5-[3-methoxy-5-(trifluoromethoxy)phenyl]-1H-pyrazol-3-yl}carbonyl)piperazin-2-one]?
Answer: EC50 [1, 4]: 0.11 µM; EC50 [2, 5]: 0.068 µM; EC50 [3, 4]: 0.618 µM

Question: `O=C(c1cc(-c2cc(F)cc(Cl)c2)n(-c2ccnc(C(F)(F)F)c2)n1)N1CCSC1` [Example 18] was tested. Which EC50 [1, 4] did it give?
Answer: 0.284 µM

Question: And the EC50 [2, 5]?
Answer: > 3.3 µM

Question: What about the EC50 [3, 4] of the same molecule?
Answer: > 3.3 µM

Question: `O=C1CN(C(=O)c2cc(-c3cc(F)cc(Cl)c3)n(-c3ccnc(C(F)(F)F)c3)n2)CCN1` [Example 17] was tested. Which EC50 [1, 4] did it give?
Answer: 0.248 µM

Question: What about the EC50 [2, 5] of the same molecule?
Answer: > 3.3 µM

Question: And the EC50 [3, 4]?
Answer: 3.67 µM

Question: How did the EC50 [1, 4] turn out when `O=C1CN(C(=O)c2cc(-c3cncc(C(F)(F)F)c3)n(-c3cccc(Cl)c3)n2)CN1` [Example 108, 1-({1-(3-Chlorophenyl)-5-[5-(trifluoromethyl)pyridin-3-yl]-1H-pyrazol-3-yl}carbonyl)imidazolidin-4-one] was run?
Answer: 0.052 µM

Question: What about the EC50 [2, 5] of the same molecule?
Answer: 0.093 µM

Question: What about the EC50 [3, 4] of the same molecule?
Answer: 0.036 µM

Question: How did the EC50 [1, 4] turn out when `COc1cc(OC(F)(F)F)cc(-c2cc(C(=O)N3CNC(=O)C3)nn2-c2ccnc(Cl)c2)c1` [Example 86, 1-({1-(2-Chloropyridin-4-yl)-5-[3-methoxy-5-(trifluoromethoxy)phenyl]-1H-pyrazol-3-yl}carbonyl)imidazolidin-4-one] was run?
Answer: 0.014 µM

Question: And the EC50 [2, 5]?
Answer: 0.011 µM

Question: And the EC50 [3, 4]?
Answer: 0.065 µM

Question: For `O=C(c1cc(-c2cc(Br)cc(OC(F)(F)F)c2)n(-c2ccc(F)nc2)n1)N1CCSC1` [Example 41, {5-[3-Bromo-5-(trifluoromethoxy)phenyl]-1-(6-fluoropyridin-3-yl)-1H-pyrazol-3-yl}(1,3-thiazolidin-3-yl)methanone], which EC50 [1, 4] is on record?
Answer: 0.042 µM

Question: What about the EC50 [2, 5] of the same molecule?
Answer: 0.087 µM

Question: What about the EC50 [3, 4] of the same molecule?
Answer: 0.991 µM

Question: With `COc1cc(Br)cc(-c2cc(C(=O)N3CNC(=O)C3)nn2-c2cccnc2)c1` [Example 94, 1-{[5-(3-Bromo-5-methoxyphenyl)-1-(pyridin-3-yl)-1H-pyrazol-3-yl]carbonyl}imidazolidin-4-one] as the molecule, how does the EC50 [1, 4] read?
Answer: < 0.002 µM

Question: And the EC50 [2, 5]?
Answer: 0.012 µM

Question: And the EC50 [3, 4]?
Answer: 0.006 µM

Question: With `O=C(c1cc(-c2cc(Br)cc(OC(F)(F)F)c2)n(-c2cccnc2)n1)N1CC[S+]([O-])C1` (racemic) [Example 31, {5-[3-Bromo-5-(trifluoromethoxy)phenyl]-1-(pyridin-3-yl)-1H-pyrazol-3-yl}(1-oxido-1,3-thiazolidin-3-yl)methanone] as the molecule, how does the EC50 ([1]; MT4 cells) read?
Answer: 0.017 µM

Question: And the EC50 [2, 6]?
Answer: 0.045 µM

Question: What about the EC50 ([3]; MT4 cells) of the same molecule?
Answer: 0.18 µM

Question: Which results are given for `O=C1CN(C(=O)c2cc(-c3cc(Br)cc(OC(F)(F)F)c3)n(-c3ccc(F)nc3)n2)CN1` [Example 39, 1-({5-[3-Bromo-5-(trifluoromethoxy)phenyl]-1-(6-fluoropyridin-3-yl)-1H-pyrazol-3-yl}carbonyl)imidazolidin-4-one]?
Answer: EC50 [1, 4]: 0.009 µM; EC50 [2, 5]: 0.007 µM; EC50 [3, 4]: 0.062 µM

Question: What does the source list for `O=C1CN(C(=O)c2cc(-c3cncc(F)c3)n(-c3ccc(F)c(Cl)c3)n2)CCN1` [Example 99, 4-{[1-(3-Chloro-4-fluorophenyl)-5-(5-fluoropyridin-3-yl)-1H-pyrazol-3-yl]carbonyl}piperazin-2-one]?
Answer: EC50 [1, 4]: 0.113 µM; EC50 [2, 5]: 1.31 µM; EC50 [3, 4]: 0.258 µM

Question: `O=C1CN(C(=O)c2cc(-c3cc(Br)cc(OC(F)(F)F)c3)n(-c3ccnc(C(F)(F)F)c3)n2)CCN1` [Example 116, 4-({5-[3-Bromo-5-(trifluoromethoxy)phenyl]-1-[2-(trifluoromethyl)pyridin-4-yl]-1H-pyrazol-3-yl}carbonyl)piperazin-2-one] was tested. Which EC50 [1, 4] did it give?
Answer: 0.648 µM

Question: What about the EC50 [2, 5] of the same molecule?
Answer: 0.896 µM

Question: And the EC50 [3, 4]?
Answer: > 3.3 µM

Question: What does the source list for `O=C(c1cc(-c2cc(F)cc(Cl)c2)n(-c2cccnc2)n1)N1CC[S+]([O-])C1` (racemic) [Example 6, [5-(3-Chloro-5-fluorophenyl)-1-(pyridin-3-yl)-1H-pyrazol-3-yl](1-oxido-1,3-thiazolidin-3-yl)methanone]?
Answer: EC50 ([1]; MT4 cells): 0.054 µM; EC50 [2, 6]: 1.36 µM; EC50 ([3]; MT4 cells): 0.201 µM

Question: With `O=C1CN(C(=O)c2cc(-c3cc(Br)cc(OC(F)(F)F)c3)n(-c3cccc(Cl)n3)n2)CN1` [Example 27, 1-({5-[3-Bromo-5-(trifluoromethoxy)phenyl]-(6-chloropyridin-2-yl)-1H-pyrazol-3-yl}carbonyl)imidazolidin-4-one] as the molecule, how does the EC50 [1, 4] read?
Answer: 0.098 µM

Question: And the EC50 [2, 5]?
Answer: 0.114 µM

Question: And the EC50 [3, 4]?
Answer: > 3.3 µM

Question: Which results are given for `O=C1CN(C(=O)c2cc(-c3cc(Br)cc(OC(F)F)c3)n(-c3cccnc3)n2)CN1` [Example 56, 1-({5-[3-Bromo-5-(difluoromethoxy)phenyl]-1-(pyridin-3-yl)-1H-pyrazol-3-yl}carbonyl)imidazolidin-4-one]?
Answer: EC50 [1, 4]: 0.002 µM; EC50 [2, 5]: 0.005 µM; EC50 [3, 4]: 0.011 µM

Source: patent publication US9296720B2, “Carboxamide-substituted heteroaryl-pyrazoles and the use thereof” (AiCuris GmbH & Co. KG, priority 2011, dated 2016)
